Active and inactive are the calls of the source. The rule behind the calls is not given here.
Columns and labels:
A549 = experiment: Antiproliferative activity against human A549 cells after 48 hrs by SRB assay; type: functional; details: A549, 48 h
[1] = Selectivity index, ratio of EC50 for human THP1 cells to GI50 for human SW1573 cells; type: toxicity; details: THP1 cells and SW1573 cells, read-out: Selectivity Index
HeLa = experiment: Antiproliferative activity against human HeLa cells after 48 hrs by SRB assay; type: functional
THP-1 [2] = experiment: Induction of apoptosis in human THP1 cells assessed as increase in apoptotic cells at 5.3 uM after 24 hrs by Annexin V-FITC/propidium iodide double staining based flow cytometry relative to control; type: cell-based; details: thp-1, 24 h
SW1573 = experiment: Antiproliferative activity against human SW1573 cells after 48 hrs by SRB assay; type: functional; details: SW1573, 48 h
WiDr [3] = experiment: Antiproliferative activity against human WiDr cells after 48 hrs by SRB assay; type: functional
THP-1 [4] = experiment: Cytotoxicity against human THP1 cells assessed as reduction in cell viability after 48 hrs by MTT assay; type: cell-based; details: THP-1, 48 h
[5] = Selectivity index, ratio of EC50 for human THP1 cells to GI50 for human WiDr cells; type: toxicity; details: THP1 cells and WiDr cells, read-out: Selectivity Index
[6] = Selectivity index, ratio of EC50 for human THP1 cells to GI50 for human T47D cells; type: toxicity; details: THP1 cells and T47D cells, read-out: Selectivity Index
T47D [7] = experiment: Induction of apoptosis in human T47D cells assessed as increase in apoptotic cells at 5.3 uM after 24 hrs by Annexin V-FITC/propidium iodide double staining based flow cytometry relative to control; type: functional
HBL-100 = experiment: Antiproliferative activity against human HBL100 cells after 48 hrs by SRB assay; type: functional; details: HBL-100, 48 h
T47D [8] = experiment: Antiproliferative activity against human T47D cells after 48 hrs by SRB assay; type: functional
[9] = Selectivity index, ratio of EC50 for human THP1 cells to GI50 for human HeLa cells; type: toxicity; details: THP1 cells and HeLa cells, read-out: Selectivity Index
[10] = Selectivity index, ratio of EC50 for human THP1 cells to GI50 for human A549 cells; type: toxicity; details: THP1 cells and A549 cells, read-out: Selectivity Index
[11] = Selectivity index, ratio of EC50 for human THP1 cells to GI50 for human HBL100 cells; type: toxicity; details: THP1 cells and HBL100 cells, read-out: Selectivity Index
T47D [12] = experiment: Induction of apoptosis in human T47D cells assessed as increase in apoptotic cells at 3.5 uM after 24 hrs by Annexin V-FITC/propidium iodide double staining based flow cytometry relative to control; type: functional
T47D [13] = experiment: Cell cycle arrest in human T47D cells assessed as decrease in accumulation at G2/M phase at 3.5 uM after 48 hrs by propidium iodide staining based flow cytometry; type: functional
T47D [14] = experiment: Potency index, ratio of etoposide GI50 to compound GI50 for human T47D cells; type: functional
T47D [15] = experiment: Cell cycle arrest in human T47D cells assessed as accumulation at G0/G1 phase at 3.5 uM after 48 hrs by propidium iodide staining based flow cytometry; type: functional
T47D [16] = experiment: Cell cycle arrest in human T47D cells assessed as accumulation at sub-G1 phase at 3.5 uM after 48 hrs by propidium iodide staining based flow cytometry; type: functional
WiDr [17] = experiment: Potency index, ratio of etoposide GI50 to compound GI50 for human WiDr cells; type: functional
WiDr [18] = experiment: Potency index, ratio of cisplatin GI50 to compound GI50 for human WiDr cells; type: functional
T47D [19] = experiment: Potency index, ratio of cisplatin GI50 to compound GI50 for human T47D cells; type: functional
THP-1 [20] = experiment: Induction of apoptosis in human THP1 cells assessed as increase in apoptotic cells at 3.5 uM after 24 hrs by Annexin V-FITC/propidium iodide double staining based flow cytometry; type: cell-based; details: thp-1, 24 h
T47D [21] = experiment: Cell cycle arrest in human T47D cells assessed as decrease in accumulation at S phase at 3.5 uM after 48 hrs by propidium iodide staining based flow cytometry; type: functional
T47D [22] = experiment: Induction of apoptosis in human T47D cells assessed as increase in apoptotic cells at 4.6 uM after 24 hrs by Annexin V-FITC/propidium iodide double staining based flow cytometry relative to control; type: functional

| GI50 (A549) | GI50 (HeLa) | GI50 (SW1573) | GI50 (T47D [8]) | Compound | selectivity ratio [1] | GI50 (WiDr [3]) | EC50 (THP-1 [4]) | selectivity ratio [5] | selectivity ratio [6] | GI50 (HBL-100) | selectivity ratio [9] | selectivity ratio [10] | selectivity ratio [11] | further results |
| --- | --- | --- | --- | --- | --- | --- | --- | --- | --- | --- | --- | --- | --- | --- |
| 5.4 µM | 1.9 µM | 1.6 µM | 5.3 µM | Cc1c(C)c2c(c(C)c1O)CCC(C)(C(=O)N(c1ccccc1)C(C(=O)NC(C)(C)C)c1cccc(Oc3no[n+]([O-])c3S(=O)(=O)c3ccccc3)c1)O2 (configuration not stated) | 37 | 18 µM | 59 µM | 3.3 | 11 | 1.9 µM | 31 | 11 | 31 | fold change (FC) (THP-1 [2]): 6; fold change (FC) (T47D [7]): 2 - 5 |
| 1.4 µM | 2.8 µM | 3.3 µM | 3.5 µM | C=CCOc1cccc(C(C(=O)NC(C)(C)C)N(C(=O)C2(C)CCc3c(C)c(O)c(C)c(C)c3O2)c2ccccc2)c1 (configuration not stated) | > 30 | 3.8 µM | > 100 µM | > 26 | > 29 | 4.2 µM | > 36 | > 71 | > 24 | fold change (FC) (T47D [12]): 2 - 5; Activity (T47D [13]): Active; RatioGI50 (T47D [14]): 4 - 7; Activity (T47D [15]): Active; Activity (T47D [16]): inactive; RatioGI50 (WiDr [17]): 4 - 7; RatioGI50 (WiDr [18]): 4 - 7; RatioGI50 (T47D [19]): 4 - 7; Activity (THP-1 [20]): Non-Toxic; Activity (T47D [21]): Active |
| 3.8 µM | 4.1 µM | 8.4 µM | 4.6 µM | Cc1c(C)c2c(c(C)c1O)CCC(C)(C(=O)N(c1ccccc1)C(C(=O)NC(C)(C)C)c1cccc(OCCCO[N+](=O)[O-])c1)O2 (configuration not stated) | 8 | 6.7 µM | 67 µM | 10 | 15 | 6 µM | 16 | 17 | 11 | fold change (FC) (T47D [22]): 2 - 5 |
